Data from publication PMC4145329 (Marine Drugs, 2014).
In brackets after ≈: the same amount, converted by molar mass.

Columns and labels:
HepG2 cells [1] = experiment: MTT anti-proliferative assay, HepG2; assay type: cell-based, human; conditions: for Cytotoxicity IC50, HepG2: human, 72 h
Description: (§1) All of the cells were incubated at 37 °C in a humidified atmosphere composed of 95% air and 5% CO2. The cell viability was determined by measuring the ability of cells to transform MTT (Genview, Houston, TX, USA) to a purple formazan dye. The cells were seeded in 96-well tissue culture plates at 2.5 × 10^3 cells/well for 24 h. […] After incubation, 20 μL/well of MTT solution (5 mg/mL phosphate buffered saline) were added and incubated for 5 h. The medium was aspirated and replaced with 100 μL/well of DMSO to dissolve the formazan salt. The color intensity of the formazan solution, which reflects the cell growth condition, was measured at 570 nm using a microplate spectrophotometer (SpectroAma™ 250, Winooski, VT, USA).

SW480 cells = experiment: MTT anti-proliferative assay, SW480; assay type: cell-based, human; conditions: for Cytotoxicity IC50, SW480: human, 72 h
Description: as §1

[2] = MTT anti-proliferative assay, L02; assay type: cell-based; conditions: human
Description: as §1

U87 cells = experiment: MTT anti-proliferative assay, U87; assay type: cell-based, human; conditions: for Cytotoxicity IC50, U87: human, 72 h
Description: as §1

MCF-7 cells = experiment: MTT anti-proliferative assay, MCF-7; assay type: cell-based, human; conditions: for Cytotoxicity IC50, MCF-7: human, 72 h
Description: as §1

HepG2 cells [3] = experiment: Hoechst33342 staining, nuclear damage observation; assay type: cell-based, human; conditions: HepG2, 3, 6, 12 μg/mL, 72 h
Description: Apoptotic nuclear morphology was visualized by the Hoechsst33342 staining technique. Cells were fixed with 3.7% of paraformaldehyde for 10 min at room temperature and washed three times with PBS. Thus, paraformaldehyde-fixed cells were stained using Hoechsst33342 (10 μg/mL) in the dark for 10 min. After washing three times with PBS, cells were visualized using fluorescence microscope.

[4] = tested on: hepatocellular carcinoma HepG2; conditions: earlier research; cited from earlier work
PARP = experiment: Western blot, cleaved PARP in HepG2; assay type: cell-based, human; conditions: HepG2, 3, 6, 12, and 24 μg/mL, 72 h
Description: (§2) The protein was extracted with RIPA buffer and quantified using the Bradford method. Equal amounts of protein were loaded into each well. After SDS-PAGE, the proteins were transferred to a polyvinylidene difluoride (PVDF) membrane. The membrane was blocked with 5% non-fat milk for 1 h and incubated with a primary antibody (Cell Signaling Technology, Danvers, MA, USA, Rabbit monoclonal antibody, 1:1000) at 4 °C overnight. After washing two times with TBST (Tris-buffered saline with 0.1% Tween-20) buffer, the membrane was incubated with a secondary antibody (goat-anti-rabbit horseradish peroxidase (HRP)-conjugated 1:15,000) at room temperature for 1 h. The membranes were washed three times (8 min each time) with TBST. The intensity of the specific immunoreactive bands was detected through enhanced chemiluminescence (ECL).

caspase-9 = experiment: Western blot, cleaved caspase-9 in HepG2; assay type: cell-based, human; conditions: HepG2, 3, 6, 12, and 24 μg/mL, 72 h
Description: as §2

HepG2 cells [5] = experiment: Annexin V-FITC/PI flow cytometry apoptosis analysis; assay type: cell-based, human; conditions: 72 h; for percentage of early apoptotic cells: mean; for Q4 (lower right, early apoptotic cells), representative dot plot: Figure 3 picture
Description: The apoptotic cells were quantified using an Annexin V-FITC (Sigma-Aldrich, USA) Apoptosis Detection Kit according to the manufacturer’s instructions. […] Five μL of Annexin V-fluorescein isothiocyanate (FITC) and 5 μL of PI were added. The analysis was performed with a FACScan flow cytometer (Coulter Epics Elite, Miami, FL, USA). The cells in the FITC-positive and PI-negative fraction were regarded as apoptotic cells.

caspase-3 = experiment: Western blot, cleaved caspase-3 in HepG2; assay type: cell-based, human; conditions: HepG2, 3, 6, 12, and 24 μg/mL, 72 h
Description: as §2

[6] = tested on: human renal cell carcinoma GRC-1; conditions: earlier research; cited from earlier work

Compound	Cytotoxicity IC50, HepG2 (HepG2 cells [1]) [µg/mL]	Cytotoxicity IC50, SW480 (SW480 cells) [µg/mL]	IC50 at 72 h [2] [µg/mL]	Cytotoxicity IC50, U87 (U87 cells) [µg/mL]	Cytotoxicity IC50, MCF-7 (MCF-7 cells) [µg/mL]	nuclear morphology (Hoechst33342) (HepG2 cells [3])	cleaved PARP expression (PARP)	cleaved caspase-9 expression (caspase-9)	Q4 (lower right, early apoptotic cells), representative dot plot (HepG2 cells [5]; HepG2, 6 μg/ml) [%]	Q4 (lower right, early apoptotic cells), representative dot plot (HepG2 cells [5]; HepG2, 12 μg/ml) [%]	cleaved caspase-3 expression (caspase-3)	also measured
CC(C)C[C@@H]1NC(=O)[C@@H](CC(C)C)N(C)C(=O)[C@H](CC(C)C)NC(=O)[C@@H](Cc2ccccc2)N(C)C(=O)[C@@H](CC(C)C)NC1=O [Compound A4, Cyclo(Me-D-Leu-Leu-D-Leu-Me-D-Phe-Leu)]	6.27 ± 0.13	8.60 ± 0.08	> 40	2.82 ± 0.10	6.56 ± 0.18	–	–	–	–	–	–	–
CC(C)C[C@@H]1NC(=O)[C@H](CC(C)C)N(C)C(=O)[C@H](CC(C)C)NC(=O)[C@H](CC(C)C)N(C)C(=O)[C@H](Cc2ccccc2)NC1=O [Compound A1, Cyclo(Phe-N-Me-Leu-Leu-N-Me-Leu-Leu)]	4.11 ± 0.16	12.37 ± 1.01	> 40	>40	9.40 ± 0.43	–	–	–	–	–	–	–
Galaxamide	–	–	–	–	–	chromatin condensation at the edges of the nuclear membrane and nuclear fragmentation	significantly increased	significantly increased	2.1	13.4	significantly increased	antitumor activity against HepG2 [4]: significant antitumor activity; percentage of early apoptotic cells (HepG2 cells [5]; HepG2, 6 μg/mL): 2.3% ± 0.3%; percentage of early apoptotic cells (HepG2 cells [5]; HepG2, 24 μg/mL): 18.8% ± 1.9%; Q4 (lower right, early apoptotic cells), representative dot plot (HepG2 cells [5]; HepG2, 24 μg/ml): 18.8%; antitumor activity against GRC-1 [6]: significant antitumor activity
CC(C)C[C@@H]1NC(=O)[C@@H](CC(C)C)NC(=O)[C@@H](CC(C)C)N(C)C(=O)[C@@H](CC(C)C)NC(=O)[C@@H](Cc2ccccc2)N(C)C1=O [Compound A5, Cyclo(Leu-D-N-Me-Phe-D-Leu-D-N-Me-Leu-D-Leu)]	1.46 ± 0.09	5.10 ± 0.12	10.6 ± 0.6 (≈ 16.8 µM)	1.85 ± 0.11	4.18 ± 0.15	chromatin condensation at the edges of the nuclear membrane and nuclear fragmentation	significantly increased	significantly increased	19.9	22.4	significantly increased	fold more active than galaxamide, HepG2 (HepG2 cells [1]; ratio of IC50 values): 3.17 fold; fold more active than galaxamide, SW480 (SW480 cells; ratio of IC50 values): 8.59 fold; fold more active than galaxamide, U87 (U87 cells; ratio of IC50 values): 5.73 fold; fold more active than galaxamide, MCF-7 (MCF-7 cells; ratio of IC50 values): 3.37 fold; percentage of early apoptotic cells (HepG2 cells [5]; HepG2, 3 μg/mL): 6.6% ± 1.7%; Q4 (lower right, early apoptotic cells), representative dot plot (HepG2 cells [5]; HepG2, 3 μg/ml): 6.6%; percentage of early apoptotic cells (HepG2 cells [5]; HepG2, 12 μg/mL): 22.4% ± 2.4%
CC(C)C[C@@H]1NC(=O)[C@@H](CC(C)C)N(C)C(=O)[C@H](CC(C)C)NC(=O)[C@@H](Cc2ccccc2)N(C)C(=O)[C@H](CC(C)C)NC1=O [Compound A3, Cyclo(Me-D-Leu-Leu-Leu-Me-D-Phe-Leu)]	5.58 ± 0.11	10.20 ± 0.15	> 40	20.16 ± 0.30	7.23 ± 0.27	–	–	–	–	–	–	–
CC(C)C[C@@H]1NC(=O)[C@H](CC(C)C)N(C)C(=O)[C@H](CC(C)C)NC(=O)[C@H](CC(C)C)N(C)C(=O)[C@@H](Cc2ccccc2)NC1=O [Compound A2, Cyclo(D-Phe-N-Me-Leu-Leu-N-Me-Leu-D-Leu)]	4.56 ± 0.20	5.75 ± 0.19	> 40	>40	9.64 ± 0.35	–	–	–	–	–	–	–
